The record followed here is patent publication US20190223483A1, “SENSORY MODIFIER COMPOUNDS” (CARGILL, INCORPORATED, priority 2017, published 2019).

Common to all, as to assay type: in vivo
Assay [1] is described as follows: Roundtable assessment of botanical notes (scale 0 to 5). Also on record: key: 0 = none; 1 = trace/faint; 2 = slight; 3 = moderate; 4 = definite; 5 = strong; 6 = extreme. The procedure: For other sweetness attributes, the solutions were tested by a panel of at least four individuals that are highly-trained in tasting steviol glycoside solutions. The highly-trained panelists used a roundtable methodology to assess each sweetness attribute. To test each solution, the highly-trained panelists dispensed approximately 2 mL of each solution into their own mouths by transfer pipet, dispersed the solution by moving their tongues, and recorded a value for the particular sweetness attribute being tested. Between tasting solutions, the panelists were able to cleanse their palates with water. For each sweetness attribute, the panelist agreed on a descriptive scale with relative intensities assigned for each sweetness attribute and then recorded the values for each sweetness attribute against this. For example, this roundtable assessment of sweetness linger assigned a scale of 0 to 6 with a score of 0 indicating no sweetness linger and a score of 6 indicating extreme sweetness linger. Roundtable assessment of sweetness linger assigned a scale of 0 to 6 with a score of 0 indicating no sweetness linger and a score of 6 indicating extreme sweetness linger (0=none, 1=trace, 2=slight, 3=moderate, 4=definite, 5=strong, 6=extreme). Roundtable assessment of rounded assigned a scale of 0 to 3 with a score of 0 indicating spikey and a score of 3 indicating desirable rounded (0=none, 1=mostly spikey, some rounded, 2=mostly rounded, some spikey, 3=rounded). Roundtable assessment of mouthfeel assigned a scale of 0 to 2 with a score of 0 indicating water and a score of 2 indicating syrupy (0=water, 1=sucrosey, 2=syrupy). Roundtable assessment of bitterness assigned a scale of 0 to 6 with a score of 0 indicating no bitterness and a score of 6 indicating extreme sweetness linger (0=none, 1=trace, 2=slight, 3=moderate, 4=definite, 5=strong, 6=extreme). Roundtable assessment of off tastes assigned a scale of 0 to 6 with a score of 0 indicating no bitterness and a score of 6 indicating extreme off tastes (0=none, 1=trace, 2=slight, 3=moderate, 4=definite, 5=strong, 6=extreme).
Roundtable assessment of botanical notes assigned a scale of 0 to 5 with a score of 0 indicating no botanical notes and a score of 5 indicating strong (0=none, 1=trace, 2=slight, 3=moderate, 4=definite, 5=strong).
A series of assays were carried out to characterize botanical notes of sensory modifier compound (0=none, 1=trace/faint, 2=slight, 3=moderate, 4=definite, 5=strong) in steviol glycoside compositions using the roundtable methodology described in Example 1. […] Solutions of steviol glycosides and sensory modifier compound were prepared at increasing ratios of sensory modifier to steviol glycoside by weight. […] The concentration of steviol glycosides was 700 ppm in each solution. The solutions were tested for botanical notes.

Assay [2] in a line: Sweetness intensity (SEV) by trained panel against 1%-14% sucrose standards. How it is done:
In some aspects, the amount of sensory modifier compound effective to increase sweetness intensity can be determined by panel testing with trained panelists. For example, […] can be determined by the following test: Solutions were prepared by dissolving steviol glycosides and sensory modifier compounds into reverse osmosis water at the indicated concentrations and/or ratios. Solutions were tested by a panel of at least four individuals that are highly-trained in tasting steviol glycoside solutions. The highly-trained panelists were trained against a standard range of 1%, 2%, 3%, 4%, 5%, 6%, 7%, 8%, 9%, 10%, 11%, 12%, 13%, and 14% sucrose solutions corresponding to 1, 2, 3, 4, 5, 6, 7, 8, 9, 10, 11, 12, 13, and 14 SEV. To test each solution, the highly-trained panelists dispensed approximately 2 mL of each solution into their own mouths by transfer pipet, dispersed the solution by moving their tongues, and recorded an SEV value for each solution based on comparison to the 1%, 2%, 3%, 4%, 5%, 6%, 7%, 8%, 9%, 10%, 11%, 12%, 13%, and 14% sucrose solutions. Between tasting solutions, the panelists were able to cleanse their palates with water. […] For sweetness intensity, the panelists focused on, and only recorded, the sweetness intensity in SEV that they tasted while disregarding other attributes of the solution. At the highest concentrations of steviol glycoside and sensory modifier compound, the panelists found other attributes to be highly noticeable, but recorded the isolated sweetness intensity for each solution despite these other attributes. Exemplary tests are described below in Example 1.
All solutions were prepared by dissolving steviol glycosides and sensory modifier compounds into reverse osmosis water at the indicated concentrations and/or ratios.
For sweetness intensity, the solutions were tested by a panel of at least four individuals that are highly-trained in tasting steviol glycoside solutions. The highly-trained panelists were trained against a standard range of 1%, 2%, 3%, 4%, 5%, 6%, 7%, 8%, 9%, 10%, 11%, 12%, 13%, and 14% sucrose solutions corresponding to 1, 2, 3, 4, 5, 6, 7, 8, 9, 10, 11, 12, 13, and 14 SEV. To test each solution, the highly-trained panelists dispensed approximately 2 mL of each solution into their own mouths by transfer pipet, dispersed the solution by moving their tongues, and recorded an SEV value for each solution based on comparison to the 1%, 2%, 3%, 4%, 5%, 6%, 7%, 8%, 9%, 10%, 11%, 12%, 13%, and 14% sucrose solutions. Between tasting solutions, the panelists were able to cleanse their palates with water. […] For this example, the panelists focused on and only recorded the sweetness intensity in SEV that they tasted while disregarding other attributes of the solution. At the highest concentrations of steviol glycoside and sensory modifier compound, the panelists found other attributes to be highly noticeable, but recorded the isolated sweetness intensity for each solution despite these other attributes.

Assay [3] in a line: Roundtable assessment of astringency. Also on record: key: 0 = none; 1 = trace/faint; 2 = slight; 3 = moderate; 4 = definite; 5 = strong; 6 = extreme.
Where [4] appears, read: steviol glycoside 700 ppm + yerba mate mono/dicaffeoylquinic acids 630 ppm.
The mark [5] stands for this setting: steviol glycoside 700 ppm + yerba mate mono/dicaffeoylquinic acids 946 ppm.
[6] abbreviates: steviol glycoside 700 ppm + yerba mate mono/dicaffeoylquinic acids […].
Setting [7] is: steviol glycoside 700 ppm, sensory modifier 0 ppm.

Regarding `C=C1C[C@@]23CC[C@H]4[C@@](C)(CCC[C@@]4(C)C(=O)O[C@@H]4O[C@H](CO)[C@@H](O)[C@H](O)[C@H]4O)[C@@H]2CC[C@]1(O[C@@H]1O[C@H](CO)[C@@H](O)[C@H](O[C@@H]2O[C@H](CO)[C@@H](O)[C@H](O)[C@H]2O)[C@H]1O[C@@H]1O[C@H](CO)[C@@H](O)[C@H](O)[C@H]1O)C3` [RebA, Rebaudioside A], the Botanical notes is given as 1 in assay [1] (setting [4]), 3 in assay [1] (setting [5]), “Not observed” in assay [1] (setting [6]) and “Not observed” in assay [1] (setting [7]). For the same molecule, the SEV in assay [2] (setting [4]), in assay [2] (setting [5]), in assay [2] (setting [6]) and in assay [2] (setting [7]) was 7 throughout. For the same molecule, the Astringency in assay [3] (setting [4]) was 1; in assay [3] (setting [5]), 3; in assay [3] (setting [6]), “Not observed”; in assay [3] (setting [7]), “Not observed”.
